Laboratory results taken from patent US8765820B2, “Tranylcypromine derivatives as inhibitors of histone demethylases LSD1 and/or LSD2” (Universita Degli Studi di Roma “La Sapienza”, priority 2010, dated 2014).
Structures can show the parent of a compound that is named as a salt. Where two headings read alike, the source gives them in different places.

Assays:
NB4 cells = conditions: RA 10 nM in the absence of 6e
Human recombinant MAO B = Human recombinant MAO B (Homo sapiens (Human), UniProt P27338); assay: MAO B inhibition, peroxidase-coupled assay with benzylamine as substrate; assay type: biochemical; conditions: for MAO B Ki: 25° C., pH 7.5, no inhibition = no detectable inhibition at inhibitor saturated solutions
Human recombinant MAO B, sequence (P27338 whole entry): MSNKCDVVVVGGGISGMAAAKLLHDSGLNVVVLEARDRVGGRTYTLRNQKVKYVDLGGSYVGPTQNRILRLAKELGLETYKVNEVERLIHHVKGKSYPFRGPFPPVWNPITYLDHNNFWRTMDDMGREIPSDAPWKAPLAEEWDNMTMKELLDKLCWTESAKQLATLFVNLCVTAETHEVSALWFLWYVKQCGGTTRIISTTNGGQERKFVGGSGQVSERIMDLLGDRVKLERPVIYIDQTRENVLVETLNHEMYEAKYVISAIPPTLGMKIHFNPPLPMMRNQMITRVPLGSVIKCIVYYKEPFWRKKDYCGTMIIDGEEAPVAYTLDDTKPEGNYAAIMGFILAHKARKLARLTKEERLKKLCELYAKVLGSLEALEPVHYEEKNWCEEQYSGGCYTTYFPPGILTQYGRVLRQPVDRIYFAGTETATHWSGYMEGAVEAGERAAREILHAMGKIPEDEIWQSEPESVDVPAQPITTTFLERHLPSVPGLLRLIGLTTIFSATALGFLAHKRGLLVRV

[1] = biological target: Human recombinant LSD1/CoREST (Homo sapiens (Human), UniProt O60341); assay: LSD1 inhibition, peroxidase-coupled assay with histone H3 peptide mono-methylated at Lys4; assay type: biochemical
Mouse recombinant LSD2 = Mouse recombinant LSD2 (Mus musculus (Mouse), UniProt Q8CIG3); assay: LSD2 inhibition, peroxidase-coupled assay with histone H3 peptide di-methylated at Lys4; assay type: biochemical; conditions: for Ki: pH 8.0, steady-state competition experiments, errors within 30%
Mouse recombinant LSD2, sequence (Q8CIG3 whole entry): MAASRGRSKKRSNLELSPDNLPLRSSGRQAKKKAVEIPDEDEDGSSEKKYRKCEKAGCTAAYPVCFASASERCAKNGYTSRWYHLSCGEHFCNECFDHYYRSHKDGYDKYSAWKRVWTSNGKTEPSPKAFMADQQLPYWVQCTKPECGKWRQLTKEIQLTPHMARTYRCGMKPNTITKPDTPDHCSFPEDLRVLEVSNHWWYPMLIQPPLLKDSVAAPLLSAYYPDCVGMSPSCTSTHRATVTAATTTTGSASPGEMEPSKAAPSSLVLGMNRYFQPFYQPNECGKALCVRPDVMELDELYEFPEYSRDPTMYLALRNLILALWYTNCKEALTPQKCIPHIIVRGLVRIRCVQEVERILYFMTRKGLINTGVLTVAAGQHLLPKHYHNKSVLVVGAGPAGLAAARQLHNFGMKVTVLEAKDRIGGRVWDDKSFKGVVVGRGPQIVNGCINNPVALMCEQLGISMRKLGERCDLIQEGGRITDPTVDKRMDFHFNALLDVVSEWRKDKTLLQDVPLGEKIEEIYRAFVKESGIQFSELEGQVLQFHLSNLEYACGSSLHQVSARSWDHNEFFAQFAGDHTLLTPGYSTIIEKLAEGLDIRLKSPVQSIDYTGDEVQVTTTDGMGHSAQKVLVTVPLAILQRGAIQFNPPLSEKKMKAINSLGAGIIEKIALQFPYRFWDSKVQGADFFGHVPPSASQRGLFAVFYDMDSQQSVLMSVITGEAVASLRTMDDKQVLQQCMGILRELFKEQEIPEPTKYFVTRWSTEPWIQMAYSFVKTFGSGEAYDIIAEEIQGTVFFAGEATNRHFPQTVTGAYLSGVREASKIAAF

Human recombinant MAO A = Human recombinant MAO A (Homo sapiens (Human), UniProt P21397); assay: MAO A inhibition, peroxidase-coupled assay with kynuramine as substrate; assay type: biochemical
Human recombinant MAO A, sequence (P21397 whole entry, looked up): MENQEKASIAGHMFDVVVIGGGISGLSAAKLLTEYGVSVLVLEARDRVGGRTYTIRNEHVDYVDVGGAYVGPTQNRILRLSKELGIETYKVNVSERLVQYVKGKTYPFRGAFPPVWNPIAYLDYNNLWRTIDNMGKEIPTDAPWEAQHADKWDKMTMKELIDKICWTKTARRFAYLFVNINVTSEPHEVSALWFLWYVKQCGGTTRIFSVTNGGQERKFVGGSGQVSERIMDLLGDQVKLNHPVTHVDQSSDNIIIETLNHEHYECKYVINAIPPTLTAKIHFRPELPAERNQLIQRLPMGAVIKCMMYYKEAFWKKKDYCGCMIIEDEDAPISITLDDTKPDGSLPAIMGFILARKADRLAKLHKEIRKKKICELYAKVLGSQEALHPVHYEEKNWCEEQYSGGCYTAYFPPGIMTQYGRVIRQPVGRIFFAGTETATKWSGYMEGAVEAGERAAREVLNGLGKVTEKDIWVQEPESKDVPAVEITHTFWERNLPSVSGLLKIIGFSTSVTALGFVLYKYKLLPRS

Molecule	MAO B inhibition (Human recombinant MAO B)	LSD2 inhibition (Mouse recombinant LSD2)	MAO A inhibition (Human recombinant MAO A)	other results
CC1=C(/C=C/C(C)=C/C=C/C(C)=C/C(=O)O)C(C)(C)CCC1 [RA, retinoic acid]				differentiating effect of RA alone (NB4 cells): almost totally ineffective
Cl.NC1CC1c1ccc(NC(=O)C(Cc2ccccc2)NC(=O)OCc2ccc(Br)cc2)cc1 (stereo not drawn) [Compound 7, trans 4-bromobenzyl 1-(4-(2-aminocyclopropyl)phenylamino)-1-oxo-3-phenylpropan-2-ylcarbamate]	−			MAO B Ki (Human recombinant MAO B): no inhibition^d; melting point: 220 to 222 °C
Cl.N[C@@H]1C[C@H]1c1ccc(NC(=O)CCCCCCC(=O)NO)cc1 (relative stereo) [Compound 9, trans N^1-(4-(2-aminocyclopropyl)phenyl)-N^8-hydroxyoctanediamide]				LSD1 inhibition ([1]; 25° C., 50 mM Hepes/NaOH pH 7.5, max inhibitor concentration 1 mM or saturated solution): +; LSD2 inhibition (Mouse recombinant LSD2; 25° C., 50 mM Hepes/NaOH pH 8.0, max inhibitor concentration 1 mM or saturated solution): +; MAO B inhibition (Human recombinant MAO B; 50 mM Hepes/NaOH pH 7.5, 0.5% reduced Triton X-100, max inhibitor concentration 1 mM or saturated solution): +
CN(C(=O)C(Cc1ccccc1)NC(=O)OCc1ccccc1)c1ccc(C2CC2N)cc1.Cl (stereo not drawn) [Compound 12, trans benzyl 1-((4-(2-aminocyclopropyl)phenyl)(methyl)amino)-1-oxo-3-phenylpropan-2-ylcarbamate]	−	+	+	MAO B Ki (Human recombinant MAO B): no inhibition^d
CC(C)C(NC(=O)OCc1ccccc1)C(=O)Nc1ccc([C@@H]2C[C@H]2N)cc1 (relative stereo) (as salt: hydrochloride) [Compound 6a, trans benzyl 1-(4-(2-aminocyclopropyl)phenylamino)-3-methyl-1-oxobutan-2-ylcarbamate]				melting point: 168 to 170 °C
Cl.NC1CC1c1ccc(NC(=O)C(Cc2ccccc2)NC(=O)NCc2ccccc2)cc1 (stereo not drawn) [Compound 16, trans N-(4-(2-aminocyclopropyl)phenyl)-2-(3-benzylureido)-3-phenylpropanamide]	+	+	+	melting point: 153 to 155 °C
N[C@@H]1C[C@H]1c1ccc(NC(=O)OCc2ccccc2)cc1 (relative stereo) [Compound 5a, trans benzyl 4-(2-aminocyclopropyl)phenylcarbamate]				Ki (Mouse recombinant LSD2; 25° C.): 20 µM
N[C@@H]1C[C@H]1c1ccc(NC(=O)C(Cc2ccccc2)NC(=O)OCc2ccccc2)cc1 (relative stereo) [Compound 6e, trans benzyl 1-(4-(2-aminocyclopropyl)phenylamino)-1-oxo-3-phenylpropan-2-ylcarbamate]				MAO B Ki (Human recombinant MAO B): no inhibition^d
CC(C)CC(NC(=O)OCc1ccccc1)C(=O)Nc1ccc([C@@H]2C[C@H]2N)cc1 (relative stereo) (as salt: hydrochloride) [Compound 6b, trans benzyl 1-(4-(2-aminocyclopropyl)phenylamino)-4-methyl-1-oxopentan-2-ylcarbamate]				melting point: 158 to 160 °C
CC(C)CC(NC(=O)OCc1ccccc1)C(=O)Nc1ccc([C@@H]2C[C@H]2N)cc1 (relative stereo) [Compound 6b, trans benzyl 1-(4-(2-aminocyclopropyl)phenylamino)-4-methyl-1-oxopentan-2-ylcarbamate]	−	+	+	LSD1 inhibition [1]: +
Cl.NC1CC1c1ccc(NC(=O)C(Cc2ccccc2)NC(=O)OCc2ccccc2)cc1 (stereo not drawn) [Compound 8, cis benzyl 1-(4-(2-aminocyclopropyl)phenylamino)-1-oxo-3-phenylpropan-2-ylcarbamate]	−			MAO B Ki (Human recombinant MAO B): no inhibition^d
CC(C)C(NC(=O)OCc1ccccc1)C(=O)Nc1ccc([C@@H]2C[C@H]2N)cc1 (relative stereo) [Compound 6a, trans benzyl 1-(4-(2-aminocyclopropyl)phenylamino)-3-methyl-1-oxobutan-2-ylcarbamate]	−	+	+	LSD1 inhibition [1]: +
N[C@@H]1C[C@H]1c1ccc(NC(=O)c2ccccc2)cc1 (relative stereo) [Compound 5b, trans N-(4-(2-aminocyclopropyl)phenyl)benzamide]				Ki (Mouse recombinant LSD2; 25° C.): 61 µM
trans benzyl 1-(4-(2- aminocycylpropyl)phenylamino)-3- (napththalen-1-yl)-1-oxopropan-2- ylcarbamate [Compound 6j]	−	+	+	LSD1 inhibition [1]: +
